Laboratory results taken from patent US20110034384A1, “COMBINATION VEGFR2 THERAPY WITH mTOR INHIBITORS” (Bristol-Myers Squibb Company, priority 2007, published 2011).
“Also recorded” adds a separate entry of the source.

How the values were obtained:
Format in all cases: in vivo, nude mice
Colo205 tumor [1] = assay: Colo205 xenograft: Comp-I vs. Bevacizumab, Temsirolimus added at Day 17 (Example 2); conditions: for Day 1 (TV, mm3) (Mean) / Day 1 (TV, mm3) Average ± STDErr: i.p.; for Day 1 (TV, mm3) (Mean) / Day 1 (TV, mm3) Average ± STDErr / Day 19 (TV, mm3) (Mean) / Day 19 (TV, mm3) Average ± STDErr / Percentage of tumor growth inhibition: Bevacizumab 10 mg/kg BIW, Comp-I 80 mg/kg TIW; for Day 19 (TV, mm3) (Mean) / Day 19 (TV, mm3) Average ± STDErr: Temsirolimus 10 mg/kg BIW added on Day 17; for Day 19 (TV, mm3) (Mean) / Day 19 (TV, mm3) Average ± STDErr / Percentage of tumor growth inhibition: Day 19; for Percentage of tumor growth inhibition: Temsirolimus added on Day 17; for Day 22 (TV, mm3) (Mean) / Day 22 (TV, mm3) Average ± STDErr: Temsirolimus 10 mg/kg BIW added on Day 17 to Bevacizumab 10 mg/kg BIW, Comp-I 80 mg/kg TIW or vehicle (n = 4)
Procedure: (§1) Tumors were measured with calipers twice a week. Tumor volumes (mm^3) were calculated by the formula [π/6 (L×W^2)], where L represents the largest tumor diameter (mm) and W represents the smallest tumor diameter (mm). Tumor measurements were noted as absolute values. Animal body weights were determined weekly during the course of the experiment. Tumor Growth Inhibition (TGI) was calculated as the percent tumor growth of treated (T) groups from control group (vehicle, C). Tumor growth was calculated by subtracting initial tumor volume (at day 0) from the final tumor volume at the end of the experiment. TGI=(1−[T-T0]/[C-C0])*100.
Human Colo205 cells were injected subcutaneously into the flanks of nude mice. Mice were randomized and treatments initiated when tumors reached an average size of 167 mm^3. Comp-I and Bevacizumab were administered intraperitoneally to Colo-205 tumor bearing-mice in doses and schedules as indicated in Table 4. Temsirolimus treatment (10 mg/kg, BIW) was initiated on Day 17 added to Comp-I and Bevacizumab treatments on Day 17. Half the mice (n=4) in the vehicle group were initiated on torisel the same day and the other half (n=4) remained under vehicle treatment. Both anti-angiogenic treatments reduced […] to similar levels by Day 22 (FIG. 4). Percentage of tumor growth inhibition was determined as follows: Day 19/Comp-I (89%), Day 19/Bevacizumab (87%).

Colo205 tumor [2] = assay: Colo205 xenograft: Comp-I vs. Bevacizumab, Temsirolimus added at Day 9 (Example 3); conditions: for Day 1 (TV, mm^3) (Mean) / Day 1 (TV, mm^3) Average ± STDErr: i.p.; for Day 1 (TV, mm^3) (Mean) / Day 1 (TV, mm^3) Average ± STDErr / Day 8 (TV, mm^3) (Mean) / Day 8 (TV, mm^3) Average ± STDErr / Percentage of tumor growth inhibition: Bevacizumab 10 mg/kg BIW, Comp-I 80 mg/kg TIW; for Day 8 (TV, mm^3) (Mean) / Day 8 (TV, mm^3) Average ± STDErr: Day 8 (before Temsirolimus); for Day 14 (TV, mm^3) (Mean) / Day 14 (TV, mm^3) Average ± STDErr: Temsirolimus 10 mg/kg BIW added on Day 9 to Bevacizumab 10 mg/kg BIW, Comp-I 80 mg/kg TIW or vehicle (n = 4)
Procedure: as §1
Human Colo205 cells were injected subcutaneously into the flanks of nude mice. Mice were randomized and treatments initiated when tumors reached an average size of 411 mm^3. Comp-I and Bevacizumab were administered intraperitoneally to Colo-205 tumor bearing-mice in doses and schedules as indicated in Table 5. Temsirolimus (10 mg/kg, BIW) was added to Comp-I and Bevacizumab treatments on Day 9. Half the mice (n=4) in the vehicle group were initiated on torisel the same day and the other half (n=4) remained under vehicle treatment Both anti-angiogenic treatments reduced […] to similar levels by Day 14 (FIG. 5).

HT1080 tumor = assay: HT1080 xenograft: Comp-I vs. Bevacizumab, Temsirolimus added at Day 23 (Example 4); conditions: for Day 1 (TV, mm^3) (Mean) / Day 1 (TV, mm^3) Average ± STDErr / Day 23 (TV, mm^3) (Mean) / Day 23 (TV, mm^3) Average ± STDErr: i.p.
Procedure: Human HT1080 cells were injected subcutaneously into the flanks of nude mice. Mice were randomized and treatments initiated when tumors reached an average size of 201 mm^3. Comp-I and Bevacizumab were administered intraperitoneally to HT1080 tumor bearing-mice in doses and schedules as indicated in Table 6. Temsirolimus (10 mg/kg, BIW) was added to Comp-I and Bevacizumab treatments on Day 23. Both anti-angiogenic treatments reduced […] as measured on Day 27 (FIG. 6).

Colo205 tumor [3] = assay: Colo205 xenograft: Comp-I, Temsirolimus and their combination (Example 1); conditions: for Colo205 tumor growth inhibition (in words): 21 days under treatment, FIG. 1, Table 2; for Tumor Volume Average: i.p., Comp-I 60 mg/kg TIW, Temsirolimus 20 mg/kg BIW, Combo 60/20 mg/kg TIW/BIW
Procedure: Human Colo205 cells were injected subcutaneously into the flanks of nude mice. Mice were randomized and treatments initiated when tumors reached an average size of 235 mm^3. Optimal doses of Comp-I (the VEGFR2 specific inhibitor represented by SEQ ID NO: 4) and Temsilorimus were administered intraperitoneally to Colo-205 tumor bearing-mice in doses and schedules as indicated in Table 1. Tumor growth was evaluated for 21 days under treatment (FIG. 1). Mice were taken off treatment after day 21 until day 57, with a continuous assessment of tumor growth (FIG. 2). Control was euthanized on Day 41. [table] Tumors were measured with calipers twice a week. Tumor volumes (mm^3) were calculated by the formula [π/6 (L×W^2)], where L represents the largest tumor diameter (mm) and W represents the smallest tumor diameter (mm). Tumor measurements were noted as absolute values. Animal body weights were determined weekly during the course of the experiment. Tumor Growth Inhibition (TGI) was calculated as the percent tumor growth of treated (T) groups from control group (vehicle, C). Tumor growth was calculated by subtracting initial tumor volume (at day 0) from the final tumor volume at the end of the experiment. TGI=(1−[T-T0]/[C-C0])*100.

[4] = Day 11, Temsirolimus 10 mg/kg BIW added on Day 9
[5] = Bevacizumab 5 mg/kg BIW, Comp-I 100 mg/kg TIW
[6] = QW groups: Bevacizumab 5 mg/kg QW, Comp-I 100 mg/kg QW

## Bevacizumab: anti-angiogenic treatment; Bevacizumab-mediated VEGF inhibition
Colo205 tumor [1]
  Day 1 (TV, mm3) (Mean): (166.7) mm3
  Day 1 (TV, mm3) Average ± STDErr: 167.7 ± 7.7 mm3
  Day 19 (TV, mm3) (Mean): (299.2) mm3
  Day 19 (TV, mm3) Average ± STDErr: 290.3 ± 24.6 mm3
  Percentage of tumor growth inhibition: 87%
  Day 22 (TV, mm3) (Mean): 250.7 mm3
  Day 22 (TV, mm3) Average ± STDErr: 246.5 ± 21.2 mm3
Colo205 tumor [2]
  Day 1 (TV, mm^3) (Mean): (398.6) mm^3
  Day 1 (TV, mm^3) Average ± STDErr: 413.0 ± 32.9 mm^3
  Day 8 (TV, mm^3) (Mean): (511.8) mm^3
  Day 8 (TV, mm^3) Average ± STDErr: 519.0 ± 50.0 mm^3
  Day 14 (TV, mm^3) (Mean): 458.9 mm^3
  Day 14 (TV, mm^3) Average ± STDErr: 455.1 ± 36.2 mm^3
Colo205 tumor [2]; Day 8
  Percentage of tumor growth inhibition: 38.99%
Colo205 tumor [2]; [4]
  Percentage of tumor growth inhibition: 82.2%
HT1080 tumor; [5]
  Day 1 (TV, mm^3) (Mean): 191.9 mm^3
  Day 1 (TV, mm^3) Average ± STDErr: 201.6 ± 19.1 mm^3
  Day 23 (TV, mm^3) (Mean): 517.4 mm^3
  Day 23 (TV, mm^3) Average ± STDErr: 486.9 ± 34.6 mm^3
HT1080 tumor; [6]
  Day 1 (TV, mm^3) (Mean): 195.8 mm^3
  Day 1 (TV, mm^3) Average ± STDErr: 202.0 ± 18.8 mm^3
  Day 23 (TV, mm^3) (Mean): 598.3 mm^3
  Day 23 (TV, mm^3) Average ± STDErr: 619.3 ± 69.6 mm^3

## CO[C@H]1C[C@@H]2CC[C@@H](C)[C@@](O)(O2)C(=O)C(=O)N2CCCC[C@H]2C(=O)O[C@H]([C@H](C)C[C@@H]2CC[C@@H](OC(=O)C(C)(CO)CO)[C@H](OC)C2)CC(=O)[C@H](C)/C=C(\C)[C@@H](O)[C@@H](OC)C(=O)[C@H](C)C[C@H](C)/C=C/C=C/C=C/1C [Temsirolimus, temsirolimus]
Colo205 tumor [3]
  Colo205 tumor growth inhibition (in words): equally inhibited
Colo205 tumor [3]; Day 1
  Tumor Volume Average: 237.19 mm^3
Colo205 tumor [3]; Day 5
  Tumor Volume Average: 287.19 mm^3
Colo205 tumor [3]; Day 8
  Tumor Volume Average: 313.73 mm^3
Colo205 tumor [3]; Day 11
  Tumor Volume Average: 354.14 mm^3
Colo205 tumor [3]; Day 14
  Tumor Volume Average: 378.44 mm^3
Colo205 tumor [3]; Day 19
  Tumor Volume Average: 395.95 mm^3
Colo205 tumor [3]; Day 21
  Tumor Volume Average: 422.42 mm^3
Colo205 tumor [1]
  Day 22 (TV, mm3) (Mean): 667.5 mm3
  Day 22 (TV, mm3) Average ± STDErr: 612.3 ± 99.5 mm3
Colo205 tumor [2]
  Day 14 (TV, mm^3) (Mean): 821.1 mm^3
  Day 14 (TV, mm^3) Average ± STDErr: 849.6 ± 106.6 mm^3

B1: Comp-I: the VEGFR2 specific inhibitor represented by SEQ ID NO: 4; a VEGFR-2 binding 10Fn3 fibronectin based scaffold polypeptide (protein)
chain: GEVVAATPTSLLISWRHPHFPTRYYRITYGETGGNSPVQEFTVPLQPPTATISGLKPGVDYTITVYAVTDGRNGRLLSIPISINYRTEIDKPCQ
Colo205 tumor [3]
  Colo205 tumor growth inhibition (in words): inhibits Colo205 tumor growth to the same extent as the mTOR inhibitor Temsirolimus; also recorded: equally inhibited
Colo205 tumor [3]; Day 1
  Tumor Volume Average: 235.25 mm^3
Colo205 tumor [3]; Day 5
  Tumor Volume Average: 301.95 mm^3
Colo205 tumor [3]; Day 8
  Tumor Volume Average: 325.42 mm^3
Colo205 tumor [3]; Day 11
  Tumor Volume Average: 369.21 mm^3
Colo205 tumor [3]; Day 14
  Tumor Volume Average: 403.32 mm^3
Colo205 tumor [3]; Day 19
  Tumor Volume Average: 426.71 mm^3
Colo205 tumor [3]; Day 21
  Tumor Volume Average: 455.84 mm^3
Colo205 tumor [1]
  Day 1 (TV, mm3) (Mean): (166.2) mm3
  Day 1 (TV, mm3) Average ± STDErr: 167.4 ± 8.1 mm3
  Day 19 (TV, mm3) (Mean): (293.1) mm3
  Day 19 (TV, mm3) Average ± STDErr: 289.4 ± 21.5 mm3
  Percentage of tumor growth inhibition: 89%
  Day 22 (TV, mm3) (Mean): 247.1 mm3
  Day 22 (TV, mm3) Average ± STDErr: 239.4 ± 18.3 mm3
Colo205 tumor [2]
  Day 1 (TV, mm^3) (Mean): (417.2) mm^3
  Day 1 (TV, mm^3) Average ± STDErr: 413.5 ± 28.7 mm^3
  Day 8 (TV, mm^3) (Mean): (505.8) mm^3
  Day 8 (TV, mm^3) Average ± STDErr: 502.5 ± 33.6 mm^3
  Day 14 (TV, mm^3) (Mean): 449.2 mm^3
  Day 14 (TV, mm^3) Average ± STDErr: 444.6 ± 30.2 mm^3
Colo205 tumor [2]; Day 8
  Percentage of tumor growth inhibition: 53.03%
Colo205 tumor [2]; [4]
  Percentage of tumor growth inhibition: 91.5%
HT1080 tumor; [5]
  Day 1 (TV, mm^3) (Mean): 183.4 mm^3
  Day 1 (TV, mm^3) Average ± STDErr: 205.1 ± 20.9 mm^3
  Day 23 (TV, mm^3) (Mean): 460.5 mm^3
  Day 23 (TV, mm^3) Average ± STDErr: 432.8 ± 23.6 mm^3
HT1080 tumor; [6]
  Day 1 (TV, mm^3) (Mean): 207.0 mm^3
  Day 1 (TV, mm^3) Average ± STDErr: 203.4 ± 18.7 mm^3
  Day 23 (TV, mm^3) (Mean): 492.9 mm^3
  Day 23 (TV, mm^3) Average ± STDErr: 533.4 ± 47.9 mm^3
HT1080 tumor; HT1080 model
  sensitivity of tumor growth, Comp-I vs. Bevacizumab (in words): tumor growth is more sensitive to Comp-1-mediated VEGFR-2 inhibition than to Bevacizumab-mediated VEGF inhibition
